Experimental data reported in PMC11846289, “New tetrahydroisoquinolines bearing nitrophenyl group targeting HSP90 and RET enzymes: synthesis, characterization and biological evaluation” (BMC Chemistry, 2025).
In brackets after ≈: the same amount, converted by molar mass.

How the values were obtained:
[1] = tested on: MG-63 (human osteosarcoma); experiment: one spot 100 µg/ml cytotoxicity, MG-63; format: cell-based; conditions: Homo sapiens, MG-63, percent inhibition, read-out: one spot concentration inhibition, MG-63
[2] = tested on: HCT116 (colon carcinoma human); experiment: one spot 100 µg/ml cytotoxicity, HCT116; format: cell-based; conditions: Homo sapiens, HCT-116, percent inhibition, read-out: one spot concentration inhibition, HCT116
[3] = tested on: CACO2 (colon carcinoma human); experiment: one spot 100 µg/ml cytotoxicity, CACO2; format: cell-based; conditions: Homo sapiens, Caco-2, percent inhibition, read-out: one spot concentration inhibition, CACO2
[4] = tested on: A549 (human lung carcinoma); experiment: one spot 100 µg/ml cytotoxicity, A549; format: cell-based; conditions: Homo sapiens, A549, percent inhibition, read-out: one spot concentration inhibition, A549
[5] = tested on: H460 (human lung carcinoma); experiment: one spot 100 µg/ml cytotoxicity, H460; format: cell-based; conditions: Homo sapiens, NCI-H460, percent inhibition, read-out: one spot concentration inhibition, H460
[6] = tested on: HUH7 (human liver carcinoma); experiment: one spot 100 µg/ml cytotoxicity, HUH7; format: cell-based; conditions: Homo sapiens, Huh-7, percent inhibition, read-out: one spot concentration inhibition, HUH7
[7] = tested on: HEPG2 (human liver carcinoma); experiment: one spot 100 µg/ml cytotoxicity, HEPG2; format: cell-based; conditions: Homo sapiens, HepG2, percent inhibition, read-out: one spot concentration inhibition, HEPG2
[8] = tested on: MCF7 (human breast carcinoma); experiment: one spot 100 µg/ml cytotoxicity, MCF7; format: cell-based; conditions: Homo sapiens, MCF7, percent inhibition, read-out: one spot concentration inhibition, MCF7
[9] = tested on: normal human skin cell line (HSF); experiment: one spot 100 µg/ml cytotoxicity, normal skin cell line HSF; format: cell-based; conditions: Homo sapiens; for cytotoxicity at 100 µg/mL: HSF, one spot 100 µg/ml, read-out: Inhibition percent of HSF cell line; for inhibition at 100 µg/mL: supplement Table S1, read-out: one spot concentration inhibition, HSF
HSF = experiment: IC50 against normal cell line HSF; format: cell-based, human; conditions: Homo sapiens; normal skin cell line HSF; read-out: IC50 FOR HSF ± S.D.
MCF7 cell line = experiment: MTT in vitro cytotoxicity, MCF7; format: cell-based, human; conditions: for Selectivity Index = IC50 of HSF/ IC50 of MCF7: HSF vs MCF7; for IC50: Homo sapiens, MTT, MCF7, read-out: IC50 for MCF7 ± S.D
Procedure: (§1) Using the MTT test method, the in vitro cytotoxicity of our synthesized compounds at different doses ranging from […] was examined in two cell lines, HEPG2 and MCF7, to examine 50% of the cancer cells dying.
(§2) Some of the synthesized compounds were tested as anticancer activity for the IC50 against two cell lines HEPG2 and MCF7 cells according to method. All cell lines were obtained from national cancer institute, Cairo—Egypt.

HEPG2 cell line = experiment: MTT in vitro cytotoxicity, HEPG2; format: cell-based, human; conditions: for Selectivity Index = IC50 of HSF/IC50 of HEPG2: HSF vs HEPG2; for IC50: Homo sapiens, MTT, HEPG2, read-out: IC50 for HEPG2 ± S.D
Procedure: as §1, §2

## CC(=O)C1C(c2cccc([N+](=O)[O-])c2)c2c(C)[nH]c(=S)c(C#N)c2CC1(C)O (stereo not shown) [Compound 2a, 7-Acetyl-4-cyano-1,6-dimethyl-6-hydroxy-8-(3-nitrophenyl)−5,6,7,8-tetra-hydroisoquinoline-3(2H)-thione]
[1]
  inhibition at 100 µg/mL: 41.9%
[2]
  inhibition at 100 µg/mL: 62.3%
[3]
  inhibition at 100 µg/mL: 55.1%
[4]
  inhibition at 100 µg/mL: 42.4%
[5]
  inhibition at 100 µg/mL: 55.3%
[6]
  inhibition at 100 µg/mL: 27.4%
[7]
  inhibition at 100 µg/mL: 61.3%
[8]
  inhibition at 100 µg/mL: 74%
[9]
  cytotoxicity at 100 µg/mL: 48%
  inhibition at 100 µg/mL: 46.2%
HSF
  IC50: 100 µg/mL (≈ 252 µM)
MCF7 cell line
  Selectivity Index = IC50 of HSF/ IC50 of MCF7: > 2
  IC50: 35 ± 0.061 µg/mL (≈ 88.1 µM)
MCF7 cell line; listed as 2A
  Selectivity Index = IC50 of HSF/ IC50 of MCF7: 2.8
HEPG2 cell line
  Selectivity Index = IC50 of HSF/IC50 of HEPG2: 1.2
  IC50: 82 ± 0.054 µg/mL (≈ 206 µM)

## CCOC(=O)CSc1nc(C)c2c(c1C#N)CC(C)(O)C(C(C)=O)C2c1cccc([N+](=O)[O-])c1 (stereo not shown) [Compound 4, Ethyl 2-[(7-acetyl-4-cyano-1,6-dimethyl-6-hydroxy-8-(3-nitrophenyl)−5,6,7,8-tetra-hydroisoquinolin-3-yl)thio]acetate]
[1]
  inhibition at 100 µg/mL: 53.8%
[2]
  inhibition at 100 µg/mL: 56.8%
[3]
  inhibition at 100 µg/mL: 64.4%
[4]
  inhibition at 100 µg/mL: 47.2%
[5]
  inhibition at 100 µg/mL: 66.8%
[6]
  inhibition at 100 µg/mL: 27.5%
[7]
  inhibition at 100 µg/mL: 62.1%
[8]
  inhibition at 100 µg/mL: 76.3%
[9]
  cytotoxicity at 100 µg/mL: 50%
  inhibition at 100 µg/mL: 49.4%
HSF
  IC50: 100 µg/mL (≈ 207 µM)
MCF7 cell line
  Selectivity Index = IC50 of HSF/ IC50 of MCF7: 2.1
  IC50: 47 ± 0.055 µg/mL (≈ 97.2 µM)
HEPG2 cell line
  Selectivity Index = IC50 of HSF/IC50 of HEPG2: 1.2
  IC50: 80 ± 0.07 µg/mL (≈ 165 µM)

## CC(=O)C1C(c2ccc([N+](=O)[O-])cc2)c2c(C)nc(SCC#N)c(C#N)c2CC1(C)O (stereo not shown) [Compound 5, 2-[(7-Acetyl-4-cyano-1,6-dimethyl-6-hydroxy-8-(4-nitrophenyl)−5,6,7,8-tetra-hydroisoquinolin-3-yl)thio]acetoonitriile]
[1]
  inhibition at 100 µg/mL: 55.7%
[2]
  inhibition at 100 µg/mL: 58.9%
[3]
  inhibition at 100 µg/mL: 61.5%
[4]
  inhibition at 100 µg/mL: 55.2%
[5]
  inhibition at 100 µg/mL: 66.6%
[6]
  inhibition at 100 µg/mL: 35.5%
[7]
  inhibition at 100 µg/mL: 68.2%
[8]
  inhibition at 100 µg/mL: 67.6%
[9]
  cytotoxicity at 100 µg/mL: 70%
  inhibition at 100 µg/mL: 66.8%
HSF
  IC50: 71 µg/mL (≈ 163 µM)
MCF7 cell line
  Selectivity Index = IC50 of HSF/ IC50 of MCF7: 2.1
  IC50: 33 ± 0.042 µg/mL (≈ 75.6 µM)
HEPG2 cell line
  Selectivity Index = IC50 of HSF/IC50 of HEPG2: 0.73
  IC50: 97 ± 0.053 µg/mL (≈ 222 µM)

## CC(=O)c1ccc(NC(=O)CSc2nc(C)c3c(c2C#N)CC(C)(O)C(C(C)=O)C3c2cccc([N+](=O)[O-])c2)cc1 (stereo not shown) [Compound 6a, 2-[(7-Acetyl-4-cyano-1,6-dimethyl-6-hydroxy-8-(3-nitrophenyl)−5,6,7,8-tetra-hydroisoquinolin-3-yl)thio]-N-(4-acetylphenyl)acetamide]
[1]
  inhibition at 100 µg/mL: 45.8%
[2]
  inhibition at 100 µg/mL: 58.1%
[3]
  inhibition at 100 µg/mL: 54.8%
[4]
  inhibition at 100 µg/mL: 20.3%
[5]
  inhibition at 100 µg/mL: 63.5%
[6]
  inhibition at 100 µg/mL: 38.6%
[7]
  inhibition at 100 µg/mL: 59.5%
[8]
  inhibition at 100 µg/mL: 66.4%
[9]
  cytotoxicity at 100 µg/mL: 56%
  inhibition at 100 µg/mL: 53.5%
HSF
  IC50: 89 µg/mL (≈ 155 µM)
MCF7 cell line
  Selectivity Index = IC50 of HSF/ IC50 of MCF7: > 2
  IC50: 21 ± 0.057 µg/mL (≈ 36.7 µM)
MCF7 cell line; listed as 6A
  Selectivity Index = IC50 of HSF/ IC50 of MCF7: 4.2
HEPG2 cell line
  IC50: > 100 µg/mL
